Measured values published in publication PMC8044163, “Vitamin D and lumisterol derivatives can act on liver X receptors (LXRs)” (Scientific Reports, 2021).

System: murine dermal fibroblasts
Assay: RNA-Seq of newborn murine dermal fibroblasts
Type: cell-based, mouse
Conditions: 10^−7 M, 24 h
Experimental: All animal studies followed guidelines outlined by the NIH Guide for the Care and Use of Laboratory Animals and protocols were approved by the Institutional Animal Care and Use Committee at the NIEHS or the UAB. […] Skin samples from newborn C57BL/6 mice were collected at the NIEHS. Dermal fibroblasts were isolated from the skin of newborn mice, 1–2 day old. Briefly, we followed the protocols described previously. The skin was washed in PBS, cut into smaller pieces and incubated in 2.4 U/ml of dispase II (Roche) overnight at 4 °C. The dermis was separated from the epidermis and incubated in 0.1% collagenase (Roche) at 4 °C overnight. […] Single cell suspension was prepared by pipetting and draining through a cell strainer. After centrifugation, cell pellets were suspended in DMEM medium containing 10% charcoal-stripped fetal bovine serum (cFBS), mouse fibroblasts growth factor (FGF) and 1% antibiotic, and inoculated into tissue culture dishes (Midwest Scientific, TPP). Cells, in early passages, from different mice were pooled together to provide representative samples for experiments. Fibroblasts were cultured in Petri dishes (10 cm in diameter) in DMEM and 10% cFBS and triplicate semi-confluent cultures were treated as described.
Triplicate cultures of murine fibroblasts were used for RNA isolation (RNAeasy Micro kit, Qiagen), the RNA samples were combined for each condition and at least 200 ng of RNA for each sample was used to create libraries for RNA sequencing by BGI Americas Corporation Service (Cambridge, MA)[67]. Quality of RNA and its concentration were determined using Agilent 2100.
The raw sequence FASTQ files were aligned to Gencode’s GRCm38 p4 Release M11 genome using STAR version 2.5.4b (parameters used: –outReadsUnmapped Fastx; –outSAMtype BAM SortedByCoordinate; –outSAMattributes All; –outFilterIntronMotifs RemoveNoncanonicalUnannotated)[69]. The abundance of transcripts was calculated from the alignments using Cufflinks version 2.2.1 (parameters used: –G; –L; –library-type fr-firststrand). Samples were merged using default parameters with Cuffmerge[70],[71]. The differential expression was calculated using Cuffdiff’s default parameters. The raw data have been deposited at the NCBI GEO (GSE145818).

C=C1C(=CC=C2CCCC3(C)C2CCC3C(C)(O)CC(O)CC(C)C)CC(O)CC1O (stereo not shown) [1,20,23(OH)3D3]
Adh7 expression level: 1.313 | Adh7 log2(fold_change) vs control: 2.36 | Aqp11 expression level: 0.9394 | Aqp11 log2(fold_change) vs control: 2.077 | Arid3b expression level: 0.6082 | Arid3b log2(fold_change) vs control: -2.478 | Bicd1 expression level: 0.7058 | Bicd1 log2(fold_change) vs control: -1.592 | Btc expression level: 1.117 | Btc log2(fold_change) vs control: 2.211 | Car9 expression level: 2.818 | Car9 log2(fold_change) vs control: -1.732 | Cbs expression level: 0.2989 | Cbs log2(fold_change) vs control: -2.697 | Ccl4 expression level: 0.3377 | Ccl4 log2(fold_change) vs control: -1.322 | Cd68 expression level: 3.541 | Cd68 log2(fold_change) vs control: 1.639 | Cd200 expression level: 0.5777 | Cd200 log2(fold_change) vs control: -1.286 | Cherp expression level: 32.7784 | Cherp log2(fold_change) vs control: -2.489 | Clec2g expression level: 0 | Clec2g log2(fold_change) vs control: -inf | Cnnm4 expression level: 4.2236 | Cnnm4 log2(fold_change) vs control: -3.566 | Cox15 expression level: 15.6597 | Cox15 log2(fold_change) vs control: 1.429 | Cpa2 expression level: 0.3128 | Cpa2 log2(fold_change) vs control: -2.322 | Ctrl expression level: 0.34 | Ctrl log2(fold_change) vs control: -1.578 | Dcun1d1 expression level: 4.162 | Dcun1d1 log2(fold_change) vs control: -1.661 | Defb42 expression level: 0.2203 | Defb42 log2(fold_change) vs control: -2.046 | Dtx1 expression level: 0.142 | Dtx1 log2(fold_change) vs control: -3.544 | Ehf expression level: 0.2985 | Ehf log2(fold_change) vs control: -1.4739 | Ercc2 expression level: 13.9366 | Ercc2 log2(fold_change) vs control: -3.6 | Erh expression level: 2.618 | Erh log2(fold_change) vs control: -1.258 | Fmnl1 expression level: 0.2192 | Fmnl1 log2(fold_change) vs control: -2.084 | Gys2 expression level: 0 | Gys2 log2(fold_change) vs control: -inf | Hist1h2ab expression level: 1.43 | Hist1h2ab log2(fold_change) vs control: 2.322 | Hist1h2bg expression level: 0 | Hist1h2bg log2(fold_change) vs control: -inf | Hist1h2bh expression level: 0 | Hist1h2bh log2(fold_change) vs control: -inf | Hist1h4c expression level: 0.4025 | Hist1h4c log2(fold_change) vs control: -1 | Isl1 expression level: 0.3246 | Isl1 log2(fold_change) vs control: -1.301 | Krt19 expression level: 10.3867 | Krt19 log2(fold_change) vs control: 1.043 | Larp1b expression level: 6.304 | Lhx6 expression level: 2.879 | Lhx6 log2(fold_change) vs control: -2.012 | Lsm5 expression level: 1.269 | Lsm5 log2(fold_change) vs control: -1.065 | M1ap expression level: 2.14 | M1ap log2(fold_change) vs control: 1.796 | Med9os expression level: 0.7829 | Med9os log2(fold_change) vs control: -1.4 | Nckipsd expression level: 23.2533 | Nckipsd log2(fold_change) vs control: 2.486 | Nr3c2 expression level: 0.0668 | Nr3c2 log2(fold_change) vs control: -4.037 | Nr6a1 expression level: 0.2068 | Nr6a1 log2(fold_change) vs control: -3.152 | Ntrk3 expression level: 0.4025 | Ntrk3 log2(fold_change) vs control: -2.2019 | Parvg expression level: 0.1595 | Parvg log2(fold_change) vs control: -3.209 | Pde4dip expression level: 24.1833 | Pde4dip log2(fold_change) vs control: -7.338 | Psd4 expression level: 0.1018 | Psd4 log2(fold_change) vs control: -3.94 | Ptpa expression level: 214.561 | Ptpa log2(fold_change) vs control: 1.701 | Ptpn6 expression level: 3.903 | Ptpn6 log2(fold_change) vs control: -1.613 | Rnu3a expression level: 0 | Rnu3a log2(fold_change) vs control: -inf | Rpph1 expression level: 0.6553 | Rpph1 log2(fold_change) vs control: -1 | Rsad1 expression level: 1.419 | Rsad1 log2(fold_change) vs control: -1.14 | Saa1 expression level: 0.1901 | Saa1 log2(fold_change) vs control: -2.322 | Samd12 expression level: 0.2728 | Samd12 log2(fold_change) vs control: -3.717 | Scn8a expression level: 0.1998 | Scn8a log2(fold_change) vs control: -2 | Sgca expression level: 0.5689 | Sgca log2(fold_change) vs control: -1.112 | Slc15a4 expression level: 13.3996 | Slc15a4 log2(fold_change) vs control: -2.086 | Slc16a5 expression level: 0.07215 | Slc16a5 log2(fold_change) vs control: -3.671 | Snhg9 expression level: 3.722 | Snhg9 log2(fold_change) vs control: -2.322 | St7 expression level: 24.6198 | St7 log2(fold_change) vs control: -1.48 | Stmn1 expression level: 5.272 | Stmn1 log2(fold_change) vs control: 1.77 | Susd1 expression level: 2.296 | Susd1 log2(fold_change) vs control: 1.732 | Syt8 expression level: 0.5148 | Syt8 log2(fold_change) vs control: -2.627 | Syt12 expression level: 0.9828 | Syt12 log2(fold_change) vs control: -2.055 | Tldc2 expression level: 0 | Tldc2 log2(fold_change) vs control: -inf | Tnnc2 expression level: 0.3105 | Tnnc2 log2(fold_change) vs control: -1.361 | Unc5c expression level: 0.4569 | Unc5c log2(fold_change) vs control: -1.248 | Wdr17 expression level: 0.2366 | Wdr17 log2(fold_change) vs control: -3.241 | Zbtb18 expression level: 4.229 | Zbtb18 log2(fold_change) vs control: -3.388 | Zfp618 expression level: 1.3488 | Zfp618 log2(fold_change) vs control: -1.817 | number of genes downregulated, FC ≥ 2: 520 | number of genes upregulated, FC ≥ 2: 531 | number of genes solely downregulated (FC ≥ 2): 113 (10.7%) | number of genes solely upregulated (FC ≥ 2): 256 (17%)
